The record followed here is patent publication US20250179061A1 (SIRONAX LTD., priority 2022, published 2025).

In this assay the test system is HT-29 cells. In words: HT-29 necroptosis cell viability assay (TNF-α/SMAC mimetic/zVAD-FMK, CellTiter-Glo). It is filed as cell-based. Particulars: Homo sapiens. The method, boiled down: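 HT-29 cells (~5,000/well, overnight) in FBS-free McCoy's 5A with TNF-α 10 ng/ml, SMAC mimetic 6 μM and zVAD-FMK 10 μM plus 10-point 1:3 compound titration, 20 h at 37°C. ATP measured by CellTiter-Glo luminescence; IC50 as geometric mean of duplicates.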

Where [1] appears, read: HT-29, HT-29 necroptosis cell viability assay, class symbols for IC50, read-out: Activity.
The mark [2] stands for this setting: HT-29 cells stimulated with TNF-α (10 ng/ml), SMAC mimetic (6 μM) and zVAD-FMK (10 μM), 20 hours, CellTiter-Glo ATP luminescence, geometric mean IC50 from 10 points, read-out: Activity.
Setting [3] is: HT-29, HT-29 necroptosis cell viability, IC50 class symbols, read-out: Activity.
Setting [4] is: HT-29, HT-29 cells, necroptosis induced by TNF-α/SMAC mimetic/zVAD-FMK, CellTiter-Glo, read-out: Activity (IC50 class).

Where two headings read alike, the source gives them in different places.

`Cc1nc(C(N)=O)sc1Oc1ccc(-n2ncn(Cc3cc(Cl)ccn3)c2=O)cc1F` [Example 565]: the IC50 under setting [1] fell in the range of 100 to 1000 nM.
Turning to `Cc1nn(-c2ccc(N(C)c3ccccc3)cc2)c(=O)n1Cc1ccccc1` [Example 67, 4-benzyl-5-methyl-2-(4-(methyl(phenyl)amino)phenyl)-2,4-dihydro-3H-1,2,4-triazol-3-one], the IC50 under setting [2] lay within 100 to 1000 nM.
On to `N#CC12CC(Nc3nccc(Oc4ccc(-n5ncn(Cc6c(F)cccc6F)c5=O)cc4F)c3F)(C1)C2` [Example 246, 3-((4-(4-(4-(2,6-difluorobenzyl)-5-oxo-4,5-dihydro-1H-1,2,4-triazol-1-yl)-2-fluorophenoxy)-3-fluoropyridin-2-yl)amino)bicyclo[1.1.1]pentane-1-carbonitrile], for which, under setting [3], the IC50 was less than 100 nM.
For the compound `NC(=O)c1ncc(Oc2ccc(-n3nc4n(c3=O)[C@H](c3ccccc3)CC4)cc2F)s1` (single isomer, unassigned) [Example 670], the IC50 under setting [4] was less than 100 nM.
With `Cc1nc(C(N)=O)sc1Oc1ccc(-n2ncn(Cc3ncccc3F)c2=O)cc1F` [Example 606, 5-(2-fluoro-4-(4-((3-fluoropyridin-2-yl)methyl)-5-oxo-4,5-dihydro-1H-1,2,4-triazol-1-yl)phenoxy)-4-methylthiazole-2-carboxamide], under setting [1], the IC50 was less than 100 nM.
Same read-out and setting: as for `N#Cc1cc(Oc2ccc(-n3ncn(Cc4c(F)cccc4F)c3=O)cc2)ncn1` [Example 630, 6-(4-(4-(2,6-difluorobenzyl)-5-oxo-4,5-dihydro-1H-1,2,4-triazol-1-yl)phenoxy)pyrimidine-4-carbonitrile], the figure is 1000 to 10000 nM.
As to `CCOC1(C)CN(c2cc(Oc3ccc(-n4ncn(Cc5c(F)cccc5F)c4=O)cc3Cl)c(Cl)cn2)C1` [Example 504, 2-(3-chloro-4-((5-chloro-2-(3-ethoxy-3-methylazetidin-1-yl)pyridin-4-yl)oxy)phenyl)-4-(2,6-difluorobenzyl)-2,4-dihydro-3H-1,2,4-triazol-3-one], under setting [1], the IC50 is less than 100 nM.
Consider `Cc1nc(N2C[C@H](F)[C@@H]2C)sc1Oc1ccc(-n2ncn(Cc3c(F)cccc3F)c2=O)cc1` [Example 51, 4-(2,6-difluorobenzyl)-2-(4-((2-((2S,3S)-3-fluoro-2-methylazetidin-1-yl)-4-methylthiazol-5-yl)oxy)phenyl)-2,4-dihydro-3H-1,2,4-triazol-3-one], for which the IC50 under setting [2] was less than 100 nM.
As to `Cc1nn(-c2ccc(S(=O)(=O)N3CCN(CC4CCOC4)CC3)cc2)c(=O)n1Cc1ccccc1` (centres unmarked) [Example 625, 4-benzyl-5-methyl-2-(4-((4-((tetrahydrofuran-3-yl)methyl)piperazin-1-yl)sulfonyl)phenyl)-2,4-dihydro-3H-1,2,4-triazol-3-one], the IC50 under setting [1] lay in the range of 100 to 1000 nM.
As for `Cc1nc(C(=O)NCCN)sc1Oc1ccc(-n2ncn(Cc3ccccc3F)c2=O)cc1F` [Example 27, N-(2-aminoethyl)-5-(2-fluoro-4-(4-(2-fluorobenzyl)-5-oxo-4,5-dihydro-1H-1,2,4-triazol-1-yl)phenoxy)-4-methylthiazole-2-carboxamide], under setting [2], the IC50 is less than 100 nM.
Consider `Cc1nc(C(C)(C)O)sc1Oc1ccc(-n2ncn(Cc3ccccc3F)c2=O)cc1F` [Example 469, 2-(3-fluoro-4-((2-(2-hydroxypropan-2-yl)-4-methylthiazol-5-yl)oxy)phenyl)-4-(2-fluorobenzyl)-2,4-dihydro-3H-1,2,4-triazol-3-one], for which the IC50 under setting [3] is less than 100 nM.
For `Cc1nc(C(=O)NC2CCOCC2)sc1Oc1ccc(-n2ncn(Cc3ccccc3F)c2=O)cc1F` [Example 642, 5-[2-fluoro-4-[4-[(2-fluorophenyl)methyl]-5-oxo-1,2,4-triazol-1-yl]phenoxy]-4-methyl-N-tetrahydropyran-4-yl-thiazole-2-carboxamide], under setting [4], the IC50 is less than 100 nM.
On to `Cc1cnc(N2CC(C)(C(N)=O)C2)cc1Oc1ccc(-n2ncn(Cc3c(F)cccc3F)c2=O)cc1Cl` [Example 568, 1-(4-(2-chloro-4-(4-(2,6-difluorobenzyl)-5-oxo-4,5-dihydro-1H-1,2,4-triazol-1-yl)phenoxy)-5-methylpyridin-2-yl)-3-methylazetidine-3-carboxamide], for which, under setting [1], the IC50 was less than 100 nM.
Consider `COC(=O)c1nc(Oc2ccc(-n3ncn(Cc4c(F)cccc4F)c3=O)cc2)sc1C` [Example 92, methyl 2-(4-(4-(2,6-difluorobenzyl)-5-oxo-4,5-dihydro-1H-1,2,4-triazol-1-yl)phenoxy)-5-methylthiazole-4-carboxylate], for which the IC50 under setting [2] was in the range of 100 to 1000 nM.
Turning to `CCOC(=O)c1ncn(Cc2ccc(-n3ncn(Cc4c(F)cccc4F)c3=O)cc2F)c1C` [Example 196, ethyl 1-(4-(4-(2,6-difluorobenzyl)-5-oxo-4,5-dihydro-1H-1,2,4-triazol-1-yl)-2-fluorobenzyl)-5-methyl-1H-imidazole-4-carboxylate], under setting [1], the IC50 is less than 100 nM.
Consider `Cc1nc(C(C)(C)O)sc1Oc1ncc(-n2ncn(Cc3c(F)cccc3F)c2=O)cc1Cl` [Example 468, 2-(5-chloro-6-((2-(2-hydroxypropan-2-yl)-4-methylthiazol-5-yl)oxy)pyridin-3-yl)-4-(2,6-difluorobenzyl)-2,4-dihydro-3H-1,2,4-triazol-3-one], for which, under setting [3], the IC50 is less than 100 nM.
Same read-out and setting: as for `O=c1n(Cc2c(F)cccc2F)cnn1-c1ccc(Oc2ccncc2Br)cc1` [Example 432, 2-(4-((3-bromopyridin-4-yl)oxy)phenyl)-4-(2,6-difluorobenzyl)-2,4-dihydro-3H-1,2,4-triazol-3-one], the figure is less than 100 nM.
Consider `Cc1nc(N)sc1Oc1ccc(-n2ncn(Cc3c(F)cccc3F)c2=O)cc1` [Example 91, 2-(4-((2-amino-4-methylthiazol-5-yl)oxy)phenyl)-4-(2,6-difluorobenzyl)-2,4-dihydro-3H-1,2,4-triazol-3-one], for which the IC50 under setting [2] was less than 100 nM.
On to `CC1(C#N)CN(c2cc(Oc3ccc(-n4nc5n(c4=O)C(c4ccccc4)CC5)cc3F)c(F)cn2)C1` (centres unmarked) [Example 292, 1-(5-fluoro-4-(2-fluoro-4-(3-oxo-5-phenyl-6,7-dihydro-3H-pyrrolo[2,1-c][1,2,4]triazol-2(5H)-yl)phenoxy)pyridin-2-yl)-3-methylazetidine-3-carbonitrile], for which, under setting [3], the IC50 was less than 100 nM.
Still for that read-out and setting: in the case of `O=c1n(Cc2c(F)cccc2F)cnn1-c1ccc(Oc2ccncc2)cc1` [Example 438, 4-(2,6-difluorobenzyl)-2-(4-(pyridin-4-yloxy)phenyl)-2,4-dihydro-3H-1,2,4-triazol-3-one] it was 100 to 1000 nM; in that of `Cc1nc(C(C)O)sc1Oc1ccc(-n2ncn(Cc3c(F)cccc3F)c2=O)cc1` (racemic) [Example 459, 4-(2,6-difluorobenzyl)-2-(4-((2-(1-hydroxyethyl)-4-methylthiazol-5-yl)oxy)phenyl)-2,4-dihydro-3H-1,2,4-triazol-3-one], less than 100 nM; in that of `Cc1nc(C(C)(C)O)sc1Oc1ccc(-n2ncn(Cc3c(F)cccc3F)c2=O)cc1F` [Example 462, 4-(2,6-difluorobenzyl)-2-(3-fluoro-4-((2-(2-hydroxypropan-2-yl)-4-methylthiazol-5-yl)oxy)phenyl)-2,4-dihydro-3H-1,2,4-triazol-3-one], less than 100 nM.
`Cc1cnc(N2CC(C)(N)C2)cc1Oc1ccc(-n2ncn(Cc3c(F)cccc3F)c2=O)cc1F` [Example 422, 2-(4-((2-(3-amino-3-methylazetidin-1-yl)-5-methylpyridin-4-yl)oxy)-3-fluorophenyl)-4-(2,6-difluorobenzyl)-2,4-dihydro-3H-1,2,4-triazol-3-one]: the IC50 under setting [3] is less than 100 nM.
